# ChEMBL document CHEMBL1154337, “Synthesis of a novel C2/C2'-aryl-substituted pyrrolo[2,1-c][1,4]benzodiazepine dimer prodrug with improved water solubility and reduced DNA reaction rate” (Bioorg Med Chem Lett, 2009)
# Assays:
# K562 = experiment: Cytotoxicity against human K562 cells by alamar blue assay; assay type: functional
# RPMI-8226 = experiment: Cytotoxicity against human RPMI8226 cells by alamar blue assay; assay type: functional
# A549 = experiment: Cytotoxicity against human A549 cells by alamar blue assay; assay type: functional
# DU-145 = experiment: Cytotoxicity against human DU145 cells by alamar blue assay; assay type: functional
# [1] = Cytotoxicity against human LNCaP-FGC cells by alamar blue assay; assay type: functional; settings: LNCaP-Clone-FGC
# A2780 = experiment: Cytotoxicity against human A2780 cells by alamar blue assay; assay type: functional
# MCF7 = experiment: Cytotoxicity against human MCF7 cells by alamar blue assay; assay type: functional
# LOX IMVI = experiment: Cytotoxicity against human LOXIMVI cells by alamar blue assay; assay type: functional
# Nucleic Acid = experiment: Induction of Escherichia coli pUC18 DNA interstrand crosslinking activity assessed as time required to reach peak; assay type: nucleic-acid assay
smiles,measurement,setting,value
COc1ccc(C2=CN3C(=O)c4cc(OC)c(OCCCOc5cc6c(cc5OC)C(=O)N5C=C(c7ccc(OC)cc7)C[C@H]5C=N6)cc4N=C[C@@H]3C2)cc1,GI50,K562,0.013 nM
same,GI50,RPMI-8226,0.0051 nM
same,GI50,A549,0.033 nM
same,GI50,DU-145,0.0154 nM
same,GI50,[1],0.0027 nM
same,GI50,A2780,0.0024 nM
same,GI50,MCF7,0.0186 nM
same,GI50,LOX IMVI,0.0225 nM
same,Activity,Nucleic Acid,2 h
C=C1C[C@H]2C=Nc3cc(OCCCOc4cc5c(cc4OC)C(=O)N4CC(=C)C[C@H]4C=N5)c(OC)cc3C(=O)N2C1 [SJG-136],GI50,K562,0.419 nM
